Source: patent US7790749B2, “Use of pleuromutilins for the treatment of disorders caused by Helicobacter pylori” (Nabriva Therapeutics AG, priority 2002, dated 2010)
Converted amounts (≈) assume the structure as drawn. Read-outs that look alike come from different tables or passages of the source.

Columns and labels:
Assay type in all cases: cell-based
[1] = system: H.pylori ATCC 43504; assay: Agar Dilution Method, MIC against H.pylori ATCC 43504; settings: Helicobacter pylori, ATCC43504, 72 h, read-out: minimum inhibitory concentrations (MIC)
Method: (§1) Activity against strains of Helicobacter pylori is determined according to the Agar Dilution Method, using Mueller Hinton agar, supplementet with >2 week old horse blood (5% v/v), incubation at 35° C. for 3 days in a gas system-generated microaerobic atmosphere according to NCCLS recommendations, such as disclosed e.g. in “Methods for dilution antimicrobial susceptibility tests for bacteria that grow aerobically ”—Fourth edition; approved standard. M7-A4 Vol. 17 No. 2 (1997) and M100-S9 Vol. 19 No. 1 (1999).
(§2) Activity of TEST COMPOUNDS (TCs) against H.pylori strains ATCC 43504, 43526, 43629, 49503 and 51652 is determined according to the Agar Dilution Method, using Mueller Hinton agar, supplementet with >2 week old horse blood (5% v/v), incubation at 35° C. for 3 days in a gas system-generated microaerobic atmosphere according to NCCLS recommendations, such as disclosed in “Methods for dilution antimicrobial susceptibility tests for bacteria that grow aerobically “—Fourth edition; approved standard. M7-A4 Vol. 17 No. 2 (1997) and M100-S9 Vol. 19 No. 1(1999).

[2] = system: H.pylori ATCC 49503; assay: Agar Dilution Method, MIC against H.pylori ATCC 49503; settings: Helicobacter pylori, ATCC49503, 72 h, read-out: minimum inhibitory concentrations (MIC)
Method: as §1, §2

[3] = system: H.pylori ATCC 51652; assay: Agar Dilution Method, MIC against H.pylori ATCC 51652; settings: Helicobacter pylori, ATCC51652, 72 h, read-out: minimum inhibitory concentrations (MIC)
Method: as §1, §2

[4] = system: H.pylori ATCC 43526; assay: Agar Dilution Method, MIC against H.pylori ATCC 43526; settings: Helicobacter pylori, ATCC43526, 72 h, read-out: minimum inhibitory concentrations (MIC)
Method: as §1, §2

[5] = system: H.pylori ATCC 43629; assay: Agar Dilution Method, MIC against H.pylori ATCC 43629; settings: Helicobacter pylori, ATCC43629, 72 h, read-out: minimum inhibitory concentrations (MIC)
Method: as §1, §2

[6] = H.pylori/43504, Mueller Hinton agar, 5% horse blood, 35° C., 3 days, microaerobic
[7] = H.pylori/49503, Mueller Hinton agar, 5% horse blood, 35° C., 3 days, microaerobic
[8] = H.pylori/51652, Mueller Hinton agar, 5% horse blood, 35° C., 3 days, microaerobic
[9] = H.pylori/43526, Mueller Hinton agar, 5% horse blood, 35° C., 3 days, microaerobic
[10] = H.pylori/43629, Mueller Hinton agar, 5% horse blood, 35° C., 3 days, microaerobic

SMILES: C=C[C@]1(C)C[C@@H](OC(=O)CSC(C)(C)CNC(=O)[C@H](N)C(C)C)[C@]2(C)[C@H](C)CC[C@]3(CCC(=O)[C@H]32)[C@@H](C)[C@@H]1O [TC-I, Valnemulin]
- MIC [1, 6]: 0.025 µg/mL (≈ 0.0443 µM)
- MIC [2, 7]: < 0.0125 µg/mL
- MIC [3, 8]: 0.025 µg/mL (≈ 0.0443 µM)
- MIC [4, 9]: 0.05 µg/mL (≈ 0.0885 µM)
- MIC [5, 10]: < 0.0125 µg/mL

SMILES: C=C[C@]1(C)C[C@@H](OC(=O)CSc2cccc(NC(=O)[C@@H]3CCCCN3)c2)[C@]2(C)C(C)CCC3(CCC(=O)C32)[C@@H](C)C1O (some centres unmarked) [TC-II]
- MIC [1, 6]: < 0.0125 µg/mL
- MIC [2, 7]: 0.025 µg/mL (≈ 0.0419 µM)
- MIC [3, 8]: 0.025 µg/mL (≈ 0.0419 µM)
- MIC [4, 9]: 0.05 µg/mL (≈ 0.0838 µM)
- MIC [5, 10]: < 0.0125 µg/mL

SMILES: CN(C)[C@@H]1C(O)=C(C(N)=O)C(=O)[C@@]2(O)C(O)=C3C(=O)c4c(O)cccc4[C@@](C)(O)[C@H]3C[C@@H]12 [TEC, tetracycline]
- MIC [1]: 0.4 µg/mL (≈ 0.9 µM)
- MIC [2]: 0.2 µg/mL (≈ 0.45 µM)
- MIC [3]: 0.2 µg/mL (≈ 0.45 µM)
- MIC [4]: 0.4 µg/mL (≈ 0.9 µM)
- MIC [5]: 0.4 µg/mL (≈ 0.9 µM)

SMILES: C=C[C@]1(C)C[C@@H](OC(=O)CSC2CCCN(C(=O)C(N)C(C)C)C2)[C@]2(C)C(C)CCC3(CCC(=O)C32)[C@@H](C)C1O (some centres unmarked) [TC-III]
- MIC [1, 6]: 0.025 µg/mL (≈ 0.0433 µM)
- MIC [2, 7]: 0.025 µg/mL (≈ 0.0433 µM)
- MIC [3, 8]: 0.025 µg/mL (≈ 0.0433 µM)
- MIC [4, 9]: 0.05 µg/mL (≈ 0.0867 µM)
- MIC [5, 10]: < 0.0125 µg/mL
